{"source": "patent US10143642B2", "about": "“Sunscreen molecule and compositions thereof” (Conopco, Inc., priority 2013, dated 2018)", "test": "Stability of sunscreen actives on HPTLC plates exposed to UV radiation (densitometry)", "type": "physicochemical", "conditions": "HPTLC plate, densitometry scan at 357 nm; for % active, 0 hr: UV radiation 5.5 mW/cm^2, 0 hr exposure; for % active, 1 hr: UV radiation 5.5 mW/cm^2, 1 hr exposure; for % active, 2 hr: UV radiation 5.5 mW/cm^2, 2 hr exposure", "description": "Sunscreen actives singly or as combinations as shown in Table-1 were checked for stability using the following procedure:\nThe method was based on spotting the HPTLC plates (in duplicate) with the sunscreen molecules of interest along with potential quencher molecules or formulations. The plate is then exposed to UV radiation (intensity 5.5 mW/cm^2) for 120 minutes. Following this the chromatographic separation was carried out using appropriate solvent system. Densitometry analysis is done to determine the amount of sunscreen degraded. Stock solutions were prepared in methanol following the ratios as mentioned in the following table. 14 μL of stock solutions were loaded (3 mm width; 16 mm separation) on a 10×10 cm F254 HPTLC plate, using CAMAG LINOMAT 5 applicator equipped with a 100 μL micro-syringe (Hamilton, Switzerland). Ascending chromatography was performed at a distance of 85 mm in a TLC chamber using n-hexane-ethyl acetate 9:1 (v/v) as the mobile phase (˜10 mL). The plates were dried at room temperature and subjected to ultraviolet absorption densitometry scan. The concentration dependent fluorescent bands due to presence of sunscreens were detected with a linear scan at 357 nm, using Camag TLC Scanner 3, in the presence of deuterium source. Slit width of 8×0.4 mm and scanning rate of 20 mm s^−1 were maintained during each densitometry scan. Concentrations of Parsol 1789 & the compound of present invention on each lane were determined from densitogram peak areas; prior and after the sun exposure using Win CATS Planar chromatography manager software.", "data": [{"smiles": "COc1ccc(/C(O)=C/C(=O)c2ccc(C(C)(C)C)cc2)cc1", "note": "[Example 1, Parsol 1789]", "values": [{"measurement": "% active, 0 hr", "value": 100, "unit": "%"}, {"measurement": "% active, 1 hr", "value": 28, "unit": "%"}, {"measurement": "% active, 2 hr", "value": 5, "unit": "%"}]}, {"smiles": "COC(=O)CCC(C)C1CCC2C3C(OC(=O)COc4ccc(C(=O)/C=C(\\O)c5ccc(C(C)(C)C)cc5)cc4)C[C@@H]4CC(OC(=O)C(C#N)=C(c5ccccc5)c5ccccc5)CCC4(C)C3CCC12C", "note": "(stereo partly drawn) [Example 5, UVB & UVA modified methyl ester of chenodeoxy cholic acid]", "values": [{"measurement": "% active, 0 hr", "value": 100, "unit": "%"}, {"measurement": "% active, 1 hr", "value": 93, "unit": "%"}, {"measurement": "% active, 2 hr", "value": 86, "unit": "%"}]}]}
